Reference: patent US20030088057A1, “PEPTIDE SUBSTRATES PHOSPHORYLATED BY P21-ACTIVAGED PROTEIN KINASE STATEMENT REGARDING FEDERALLY SPONSORED REASEARCH OR DEVELOPMENT” (priority 1998, published 2003)
No end group written: not given here.

Columns and labels:
γ-PAK [1] = target: T1, γ-PAK (Oryctolagus cuniculus, UniProt Q29502); assay: Phosphorylation of heptapeptides by Cdc42-activated γ-PAK with ATP(Mg) and ATP(Mn); assay type: biochemical, rabbit; settings: γ-PAK 2.5 units, Cdc42(GTPγS)-activated; 10 mM MgCl2 or 6 mM MnCl2
T1 construct: γ-PAK was purified from rabbit reticulocytes to apparent homogeneity; from tissue; host or cells: rabbit reticulocytes (γ-PAK)
Method: Synthetic heptapeptides were used to examine the activity of γ-PAK with manganese and magnesium. The peptides were incubated with γ-PAK (2.5 units), activated by autophosphorylation in the presence of Cdc42(GTPγS) and 10 mM MgCl2 or 6 mM MnCl2 as described under Experimental Procedures.

γ-PAK [2] = assay: Rates of phosphorylation of synthetic peptides by γ-PAK; assay type: biochemical, rabbit
Excerpt: (§1) A. Materials. γ-PAK was purified from rabbit reticulocytes to apparent homogeneity by chromatography on DEAE-cellulose, SP-Sepharose, protamine agarose, and FPLC on Mono S and Mono Q. Histone I (type IIIS), mixed histone (type IIAS), trypsin (L-1-tosylamido-2-phenylethyl chloromethyl ketone treated), soybean trypsin inhibitor, bovine serum albumin (fatty acid free), and myelin basic protein were purchased from Sigma. Purified histones 2B and 4 were purchased from Boehringer-Mannheim. Myosin light chain from rabbit skeletal muscle was a gift from Dr. James Stull, University of Texas Southwestern Medical Center, Dallas, Tex.; rat prolactin was provided by Dr. Ameae Walker, University of California, Riverside, Calif.; and the purified catalytic subunit of cAMP-dependent protein kinase from bovine heart was a gift from Dr. William H. Fletcher, J. L. Pettis Memorial V. A. Hospital, Loma Linda, Calif. Protein kinase C was purified from bovine brain according to the procedure of Walton et al. [Walton, G. M., et al., Anal Biochem., 161:425-437 (1987)], with modifications [Venema, R. C., et al., J. Biol. Chem., 266:5298-5302 (1991)]. The clone for GST-Cdc42 was generously provided by Dr. Channing Der, University of North Carolina, Chapel Hill, N.C. Cellulose thin-layer chromatography sheets were from Kodak.
D. Phosphorylation Assays. Phosphorylation of protein substrates was carried out in 35 μL reaction mixtures containing 20 mM Tris-HCl, pH 7.4, 10 mM MgCl2, 30 mM 2-mercaptoethanol, 0.2 mM ATP (specific activity =1000 cpm/pmol), 2 μg of protein substrate, and 20 units of active γ-PAK (an enzyme unit is defined as the amount of enzyme that incorporates 1 pmol of phosphate into histone IIAS/ min at 30°. Under these conditions, phosphate incorporation was linear and initial rates of phosphorylation were measured. After incubation at 30° C. for 15 min, reactions were terminated by the addition of 5 μL of 100 mM nonlabeled ATP and sample buffer for gel electrophoresis [Hathaway, G. M., et al., Methods Enzymol., 60:495-511 (1979)]. Reaction mixtures were subjected to SDS-PAGE on 15% polyacrylamide gels followed by autoradiography. Phosphorylation was quantified by excising the protein band and counting the incorporated ^32P in a liquid scintillation counter. The specific activity of γ-PAK was 400 pmol min^−1 μg^−1 as reported previously using 0.2 mM ATP and 1 mg/mL mixed histone as substrate [Rooney, R. D., et al., (1996), supra].
(§2) Assays with peptides (I mM) were carried out with γ-PAK (1.6-5.6 units) in 25 μL reaction mixtures incubated for 30 min at 30° C. under conditions described above, except that 0.4 mg/mL of bovine serum albumin was added and the specific activity of ATP was 300-2000 cpm/pmol. Reactions were terminated with 5 μL of 100 mM ATP, and the amount of ^32p incorporated was quantitated by precipitation of 20 μL aliquots on P81 phosphocellulose paper with 75 mM H3PO4 as described previously [Bensen, E. S., et al., Biochim. Biophys. Acta, 1292:249-258 (1996)]. Peptides containing only one basic amino acid were analyzed by thin-layer electrophoresis on cellulose sheets for 2 h at 600 V with pyridine/acetic acid/water (10:100:890), pH 3.5, as solvent, as described previously [Bensen, E. S., et al., supra]. Activation of γ-PAK by autophosphorylation in the presence of Cdc42(GTPγS) was performed as previously described [Jakobi, R., et al., supra]. γ-PAK was also activated by limited digestion with trypsin as described previously [Rooney, R. D., et al., (1996), supra].

γ-PAK [3] = assay: Kinetic parameters (Km, Vmax) for phosphorylation of synthetic peptides by γ-PAK; assay type: biochemical, rabbit
Method: as §2

PKA = target: T2, PKA (Bos taurus, UniProt P00517); assay: Rates of phosphorylation of synthetic peptides by PKA; assay type: biochemical, bovine
T2 construct: the purified catalytic subunit of cAMP-dependent protein kinase from bovine heart was a gift; from tissue; host or cells: bovine heart (gift from Dr. William H. Fletcher)
Excerpt: as §1, with “Myosin light chain from rabbit skeletal muscle was a gift from Dr. James Stull, University of Texas Southwestern Medical Center, Dallas, Tex.; rat prolactin was provided by Dr. Ameae Walker, University of California, Riverside, Calif.; and the purified catalytic subunit of cAMP-dependent protein kinase from bovine heart was a gift from Dr. William H. Fletcher, J. L. Pettis Memorial V. A. Hospital, Loma Linda, Calif.” left out
(§3) Reactions with PKA (10.5 units) were carried out under the same conditions as with γ-PAK except that 0.14 mM ATP was used. Reactions with PKC (3.4 units) were performed as with PKA, with the addition of 0.4 mM CaCl2, phosphatidylinositol (15 μg/mL), phosphatidylserine (15 μg/ mL), and 1,2-diolein (3 μg/mL), as described [Tuazon, P. T., et al., (1989), supra]. A unit of PKA or PKC is defined as the amount of enzyme that incorporates 1 pmol of phosphate/min at 30° C. into histone IIAS or histone 1, respectively.
PKA and PKC are known to require basic amino acids on the N-terminal side of the phosphorylatable serine/ threonine. To distinguish their substrate specificities from that of γ-PAK, the relative rates of phosphorylation were determined with the synthetic peptide substrates using the conditions for γ-PAK, with the addition of Ca^2+ and phospholipids for PKC.

PKC = assay: Rates of phosphorylation of synthetic peptides by PKC; assay type: biochemical, bovine
Excerpt: as §1, §3
PKA and PKC are known to require basic amino acids on the N-terminal side of the phosphorylatable serine/ threonine. To distinguish their substrate specificities from that of γ-PAK, the relative rates of phosphorylation were determined with the synthetic peptide substrates using the conditions for γ-PAK, with the addition of Ca^2+ and phospholipids for PKC. The rates shown in Table 5 are calculated with equivalent units of enzyme; the rate of phosphorylation of the peptide AKRASAA (SEQ ID NO:6) is taken as 100% for all three enzymes. As would be expected, PKA preferentially phosphorylated the peptides that contained RR or RK at the −3 and −2 positions and with […] residues or proline at the −4 and −1 positions inhibitory. PKC recognized SKR>RKS>KKS. The most notable difference between γ-PAK and PKA or PKC is the effect of acidic residues on the susceptibility of the peptide to be phosphorylated. An acidic residue in the −1 or −4 position was beneficial for γ-PAK but was detrimental for both PKA and PKC (Table 5). […] In addition, γ-PAK could not tolerate an arginine in the −3 position when lysine was in the −2 position.

γ-PAK, sequence (Q29502 249-500 limits assumed): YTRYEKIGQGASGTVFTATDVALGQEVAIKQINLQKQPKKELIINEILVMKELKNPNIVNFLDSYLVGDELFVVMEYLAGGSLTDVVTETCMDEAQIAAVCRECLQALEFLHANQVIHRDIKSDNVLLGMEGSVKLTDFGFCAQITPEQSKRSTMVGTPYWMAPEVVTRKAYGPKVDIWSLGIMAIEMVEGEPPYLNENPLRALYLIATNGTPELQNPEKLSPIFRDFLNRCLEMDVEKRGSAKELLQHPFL
T1 sequence (Q29502 2-524 limits assumed): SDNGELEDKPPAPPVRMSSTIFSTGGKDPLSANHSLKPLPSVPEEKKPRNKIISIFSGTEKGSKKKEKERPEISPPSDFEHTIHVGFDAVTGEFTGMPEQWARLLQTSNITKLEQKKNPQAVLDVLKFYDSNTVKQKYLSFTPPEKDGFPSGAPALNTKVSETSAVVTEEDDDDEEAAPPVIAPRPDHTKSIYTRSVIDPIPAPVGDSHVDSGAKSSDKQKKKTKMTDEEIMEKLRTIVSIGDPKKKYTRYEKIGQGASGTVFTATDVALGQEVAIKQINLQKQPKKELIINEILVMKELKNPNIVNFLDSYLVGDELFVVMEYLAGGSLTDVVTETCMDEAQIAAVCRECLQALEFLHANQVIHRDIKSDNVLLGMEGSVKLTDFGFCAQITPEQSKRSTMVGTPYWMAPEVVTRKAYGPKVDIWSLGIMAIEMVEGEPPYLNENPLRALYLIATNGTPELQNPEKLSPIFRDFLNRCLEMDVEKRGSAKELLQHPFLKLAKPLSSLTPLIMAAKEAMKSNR

phosphorylation using ATP(Mg) or ATP(Mn) (in words) (γ-PAK [1]): good substrates | increase of Km compared to AKRASAA (γ-PAK [3]): ~3 fold | increase of Vmax compared to AKRASAA (γ-PAK [3]): 6 fold | overall rate of phosphorylation (Vmax/Km) compared to AKRASAA (γ-PAK [3]): ~2.2 fold | Vmax (γ-PAK [3]; Table 3, influence of acidic amino acids): 6.62 pmol/min | Km (γ-PAK [3]; Table 3, influence of acidic amino acids, read-out: Km): 1350 µM | Vmax (γ-PAK [3]; text summary b32): 6.62 pmol/min | 32P incorporated (PKA; PKA (10.5 units), 0.14 mM ATP): 1.8 pmol/unit | 32P incorporated, % (PKA; PKA, AKRASAA taken as 100%): 38%
Substance: AKRESAA (AKRESAA-NH2) [synthetic peptide with an amide C-terminal group]
rel rate (%) (γ-PAK [2]; Cdc42(GTPγS)-activated γ-PAK, peptide 1 mM, KKRKSAA = 100): 295% | rel rate (%) (γ-PAK [2]; proteolytically (trypsin) activated γ-PAK, peptide 1 mM, compared to KKRKSAA = 100): 247% | 32P incorporated (γ-PAK [2]; proteolytically activated γ-PAK (5.6 units), peptide 1 mM, 30 min at 30° C.): 750 pmol/min/µg | 32P incorporated, % (γ-PAK [2]; γ-PAK, AKRASAA taken as 100%): 176% | 32P incorporated (γ-PAK [2]; γ-PAK, calculated with equivalent units of enzyme): 47.2 pmol/unit | rate of phosphorylation compared to AKRASAA (γ-PAK [2]; γ-PAK, relative to AKRASAA): 175% | 32P incorporated (PKC; PKC (3.4 units), with Ca2+ and phospholipids, 0.14 mM ATP): 0.4 pmol/unit | 32P incorporated, % (PKC; PKC, AKRASAA taken as 100%): 12%
